Reference: PubChem BioAssay AID264 (DTP/NCI, 2004)
Where “and” joins values, the source holds several entries; their conditions need not be identical. Equal values may be shown once. Records with an inconclusive call do not appear.

Test system: nude mice, LX-1 lung xenograft intrarenal, tumor weight T/C
Test: NCI In Vivo Anticancer Drug Screen. Data for tumor model Human Lung LX-1 Xenograft (intrarenal inoculation) in NU/NU Swiss (nude) mice
Conditions: endpoint: mean tumor weight change, higher = larger tumour
Procedure, shortened: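 Compound-treated mice carrying transplanted tumors were compared with vehicle-treated controls. Tumor size was the measured end point, and the value is the treated-group measurement divided by the control-group measurement (T/C).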

[1] = dose: 300.0 mg/kg/injection, schedule: Q04DX003 (sc), vehicle: saline with Tween-80
[2] = dose: 600.0 mg/kg/injection, schedule: Q04DX003 (sc), vehicle: saline with Tween-80
[3] = dose: 1200.0 mg/kg/injection, schedule: Q04DX003 (sc), vehicle: saline with Tween-80
[4] = dose: 50.0 mg/kg/injection, schedule: Q01DX010 (sc), vehicle: saline with Tween-80
[5] = dose: 100.0 mg/kg/injection, schedule: Q01DX010 (sc), vehicle: saline with Tween-80
[6] = dose: 25.0 mg/kg/injection, schedule: Q01DX010 (sc), vehicle: Klucel (hydroxypropylcellulose) (HPC)
[7] = dose: 100.0 mg/kg/injection, schedule: Q01DX010 (sc), vehicle: Klucel (hydroxypropylcellulose) (HPC)
[8] = dose: 200.0 mg/kg/injection, schedule: Q01DX010 (sc), vehicle: Klucel (hydroxypropylcellulose) (HPC)
[9] = dose: 150.0 mg/kg/injection, schedule: Q04DX003 (sc), vehicle: saline with Tween-80
[10] = dose: 50.0 mg/kg/injection, schedule: Q01DX010 (sc), vehicle: Klucel (hydroxypropylcellulose) (HPC)

For `CCCC(=O)O.CCCC(=O)O.CCCC(=O)O.CCCC(=O)O.[Rh].[Rh]`, the T/C (dose: 2.0 mg/kg/injection, schedule: Q04DX003 (sc), vehicle: suspension in saline) was 48 % of control, the T/C (dose: 4.0 mg/kg/injection, schedule: Q04DX003 (sc), vehicle: suspension in saline) was 51 % of control and the T/C (dose: 8.0 mg/kg/injection, schedule: Q04DX003 (sc), vehicle: suspension in saline) was 42 % of control. The T/C (dose: 16.0 mg/kg/injection, schedule: Q04DX003 (sc), vehicle: suspension in saline) was 55 % of control.

In the case of `O=C(Nc1nncs1)c1cccs1`, the T/C [1] is reported as 119 % of control, the T/C [2] is reported as 85 % of control and the T/C [3] is reported as 120 % of control.

`C=C1C(C)C2C(Cc3ccccc3)NC(=O)C23C(OC(C)=O)/C=C/C(C)(O)CC(C)C/C=C/C3C1O` (stereo not drawn) was tested, and the T/C (dose: 6.25 mg/kg/injection, schedule: Q04DX003 (sc), vehicle: Klucel (hydroxypropylcellulose) (HPC)) was 112 % of control and the T/C (dose: 12.5 mg/kg/injection, schedule: Q04DX003 (sc), vehicle: Klucel (hydroxypropylcellulose) (HPC)) was 112 % of control.

For `O=C(Nc1nncs1)c1ccncc1`, the T/C [4] was 115 % of control and the T/C [5] was 91 % of control.

With `O=C1C(NCCO)=C(N2CC2)C(=O)C(NCCO)=C1N1CC1` the T/C (dose: 0.5 mg/kg/injection, schedule: Q04DX003 (ip), vehicle: saline) was 117 % of control, the T/C (dose: 1.5 mg/kg/injection, schedule: Q04DX003 (sc), vehicle: suspension in saline) was 203 % of control and the T/C (dose: 2.0 mg/kg/injection, schedule: Q04DX003 (ip), vehicle: saline) was 61 % of control. The T/C (dose: 4.0 mg/kg/injection, schedule: Q04DX003 (ip), vehicle: saline) was 77 % of control.

In the case of `Nc1ccccc1N`, the T/C [6] is reported as 55 % of control, the T/C [7] is reported as 66 % of control and 75 % of control and the T/C [8] is reported as 83 % of control.

In the case of `Cc1ccccc1N(CC1CO1)CC1CO1` (stereo not drawn), the T/C (dose: 50.0 mg/kg/injection, schedule: Q01DX010 (sc), vehicle: suspension in saline) is reported as 33 % of control, the T/C (dose: 100.0 mg/kg/injection, schedule: Q01DX010 (sc), vehicle: suspension in saline) is reported as 22 % of control and the T/C (dose: 200.0 mg/kg/injection, schedule: Q01DX010 (sc), vehicle: suspension in saline) is reported as 104 % of control. The T/C (dose: 400.0 mg/kg/injection, schedule: Q01DX010 (sc), vehicle: suspension in saline) was 59 % of control.

In the case of `CN(C)C(=O)c1cccc(COc2ccc(N3C(N)=NC(N)=NC3(C)C)cc2Cl)c1`, the T/C (dose: 6.25 mg/kg/injection, schedule: Q01DX010 (sc), vehicle: saline) is reported as 85 % of control, the T/C (dose: 12.5 mg/kg/injection, schedule: Q01DX010 (sc), vehicle: saline) is reported as 57 % of control and the T/C (dose: 25.0 mg/kg/injection, schedule: Q01DX010 (sc), vehicle: saline) is reported as 25 % of control. For the same molecule, the T/C (dose: 25.0 mg/kg/injection, schedule: Q01DX010 (sc), vehicle: suspension in saline) was 91 % of control.

For `O=c1[nH]c(=O)n(C2CC(O)C(CO)O2)cc1I` (stereo not drawn), the T/C [4] was 71 % of control.

`O=[N+]([O-])c1ccc(N2CCOCC2)c2c1no[n+]2[O-]` was tested, and the T/C [9] was 101 % of control, the T/C [1] was 57 % of control and the T/C [2] was 77 % of control. The T/C [3] was 98 % of control.

With `CC(=O)OCC1OC(OC2=C(CC=C(C)C)C(=O)c3ccccc3C2=O)C(OC(C)=O)C(OC(C)=O)C1OC(C)=O` (stereo not drawn) the T/C (dose: 12.5 mg/kg/injection, schedule: Q01DX010 (sc), vehicle: Klucel (hydroxypropylcellulose) (HPC)) was 61 % of control, the T/C [6] was 119 % of control and the T/C [10] was 97 % of control. The T/C [7] was 83 % of control.

For `Cc1oc2c(C)c3oc(=O)cc(C)c3cc2c1CCl`, the T/C [9] was 82 % of control, the T/C [1] was 95 % of control and the T/C [2] was 60 % of control. For the same molecule, the T/C [3] was 76 % of control.

For `CC1OC(OC2CC(O)(C(=O)CO)Cc3c(O)c4c(c(O)c32)C(=O)c2ccccc2C4=O)CC(N)C1O` (stereo not drawn), the T/C (dose: 0.5 mg/kg/injection, schedule: Q01DX010 (sc), vehicle: water) was 57 % of control and the T/C (dose: 1.0 mg/kg/injection, schedule: Q01DX010 (sc), vehicle: water) was 83 % of control.

`Nc1ncn(C2OC(CO)C(O)C2O)c(=O)n1` (stereo not drawn) was tested, and the T/C (dose: 0.19 mg/kg/injection, schedule: Q01DX010 (sc), vehicle: saline) was 164 % of control, the T/C (dose: 0.75 mg/kg/injection, schedule: Q01DX010 (sc), vehicle: saline) was 40 % of control and the T/C (dose: 10.0 mg/kg/injection, schedule: Q04DX003 (sc), vehicle: saline) was 101 % of control. For the same molecule, the T/C (dose: 20.0 mg/kg/injection, schedule: Q04DX003 (sc), vehicle: saline) was 52 % of control, the T/C (dose: 100.0 mg/kg/injection, schedule: Q04DX003 (sc), vehicle: saline) was 86 % of control and the T/C (dose: 200.0 mg/kg/injection, schedule: Q04DX003 (sc), vehicle: saline) was 64 % of control. For the same molecule, the T/C (dose: 200.0 mg/kg/injection, schedule: Q04DX003 (sc), vehicle: suspension in saline) was 45 % of control, the T/C (dose: 400.0 mg/kg/injection, schedule: Q04DX003 (sc), vehicle: saline) was 35 % of control and the T/C (dose: 800.0 mg/kg/injection, schedule: Q04DX003 (sc), vehicle: saline) was 16 % of control. For the same molecule, the T/C (dose: 800.0 mg/kg/injection, schedule: Q04DX003 (sc), vehicle: suspension in saline) was 19 % of control and 28 % of control, the T/C (dose: 1228.8 mg/kg/injection, schedule: Q04DX003 (sc), vehicle: suspension in saline) was -72 % of control and the T/C (dose: 1600.0 mg/kg/injection, schedule: Q04DX003 (sc), vehicle: suspension in saline) was 12 % of control and 14 % of control. The T/C (dose: 1920.0 mg/kg/injection, schedule: Q04DX003 (sc), vehicle: suspension in saline) was -100 % of control and the T/C (dose: 2400.0 mg/kg/injection, schedule: Q04DX003 (sc), vehicle: suspension in saline) was -100 % of control.

For `COc1ccc(OC)c(Cc2cnc3nc(N)nc(N)c3c2C)c1`, the T/C (dose: 75.0 mg/kg/injection, schedule: Q04DX003 (sc), vehicle: water) was 82 % of control, the T/C (dose: 150.0 mg/kg/injection, schedule: Q04DX003 (sc), vehicle: water) was 80 % of control and the T/C (dose: 300.0 mg/kg/injection, schedule: Q04DX003 (sc), vehicle: water) was 94 % of control. The T/C (dose: 600.0 mg/kg/injection, schedule: Q04DX003 (sc), vehicle: water) was 94 % of control.

In the case of `Cc1ccc(C(=O)[O][Hg][CH2]C2COC([CH2][Hg][O]C(=O)c3ccc(C)cc3)CO2)cc1` (stereo not drawn), the T/C [6] is reported as 89 % of control, the T/C [10] is reported as 58 % of control and the T/C [7] is reported as 112 % of control. For the same molecule, the T/C [8] was 63 % of control.

`CC(=O)Nc1ccc(O)c(O)c1` was tested, and the T/C [1] was 154 % of control, the T/C [2] was 103 % of control and the T/C (dose: 2400.0 mg/kg/injection, schedule: Q04DX003 (sc), vehicle: saline with Tween-80) was 51 % of control.

`COc1ccc2c(c1)CCC(c1ccccc1)=C2c1ccc(OCCN2CCCC2)cc1` was tested, and the T/C (dose: 100.0 mg/kg/injection, schedule: Q04DX003 (sc), vehicle: Klucel (hydroxypropylcellulose) (HPC)) was 116 % of control, the T/C (dose: 200.0 mg/kg/injection, schedule: Q04DX003 (sc), vehicle: Klucel (hydroxypropylcellulose) (HPC)) was 85 % of control and the T/C (dose: 400.0 mg/kg/injection, schedule: Q04DX003 (sc), vehicle: Klucel (hydroxypropylcellulose) (HPC)) was 57 % of control. For the same molecule, the T/C (dose: 800.0 mg/kg/injection, schedule: Q04DX003 (sc), vehicle: Klucel (hydroxypropylcellulose) (HPC)) was 101 % of control.

In the case of `O=C1C=CC(=O)N1c1ccc(Cl)cc1`, the T/C (dose: 37.5 mg/kg/injection, schedule: Q04DX003 (sc), vehicle: Klucel (hydroxypropylcellulose) (HPC)) is reported as 116 % of control, the T/C (dose: 75.0 mg/kg/injection, schedule: Q04DX003 (sc), vehicle: Klucel (hydroxypropylcellulose) (HPC)) is reported as 123 % of control and the T/C (dose: 150.0 mg/kg/injection, schedule: Q04DX003 (sc), vehicle: Klucel (hydroxypropylcellulose) (HPC)) is reported as 85 % of control.

With `CCCCc1ccc2nc(NC(=O)OC)[nH]c2c1` the T/C [5] was 53 % of control and 78 % of control and the T/C (dose: 1600.0 mg/kg/injection, schedule: Q01DX010 (sc), vehicle: saline with Tween-80) was 84 % of control.

`O=c1c(O)c(-c2cc(O)c(O)c(O)c2)oc2cc(O)cc(O)c12` was tested, and the T/C (dose: 6.0 mg/kg/injection, schedule: Q04DX003 (sc), vehicle: saline with Tween-80) was 93 % of control, the T/C (dose: 12.0 mg/kg/injection, schedule: Q04DX003 (sc), vehicle: saline with Tween-80) was 99 % of control and the T/C (dose: 24.0 mg/kg/injection, schedule: Q04DX003 (sc), vehicle: saline with Tween-80) was 92 % of control. The T/C (dose: 48.0 mg/kg/injection, schedule: Q04DX003 (sc), vehicle: saline with Tween-80) was 96 % of control, the T/C (dose: 50.0 mg/kg/injection, schedule: Q04DX003 (sc), vehicle: saline with Tween-80) was 100 % of control and the T/C (dose: 100.0 mg/kg/injection, schedule: Q04DX003 (sc), vehicle: saline with Tween-80) was 83 % of control. For the same molecule, the T/C (dose: 200.0 mg/kg/injection, schedule: Q04DX003 (sc), vehicle: saline with Tween-80) was 69 % of control and the T/C (dose: 400.0 mg/kg/injection, schedule: Q04DX003 (sc), vehicle: saline with Tween-80) was 94 % of control.
